Assay results reported in paper PMC4158172 (European Journal of Clinical Pharmacology, 2014).
Read-outs that look alike come from different tables or passages of the source.

How the values were obtained:
[1] = EFV plasma pharmacokinetics when co-administered with DTG, by CYP2B6 genotype; conditions: for AUC / Cmax / concentration at 24 h / Tmax / half-life: human; for AUC: AUC(0–τ); for Cmax: C max; for concentration at 24 h: C τ; for Tmax: T max; for half-life: t½
Protocol: This was a phase I, open-label, single-sequence, two-period, steady-state study. Subjects received DTG at a dose of 50 mg (two 25 mg tablets) every 24 hours (q24h) for 5 days (period 1), and then the combination of morning DTG 50 mg and evening EFV 600 mg q24h was given for 14 days (period 2). There was no washout between treatment periods. All doses were administered in the fasting state. Serial PK plasma samples were collected after each period for DTG, and samples after period 2 were also collected for EFV. The metabolic profile of DTG was evaluated in plasma and urine using pooled samples for each subject to assist in establishing the mechanism of any potential drug interaction (see Supplementary Material).
Dolutegravir and EFV were measured in plasma samples using validated methods, which consisted of extraction from plasma by protein precipitation with acetonitrile containing [^15N^2H7]dolutegravir or [^2H4]-efavirenz as the internal standards, respectively. The plasma extracts were injected onto a 2.1 × 50 mm 3.5-micron XBridge™ C18 column (Waters Associates, Milford, MA, USA). Dolutegravir was eluted with a mobile phase consisting of 40 % acetonitrile in aqueous 0.1 % formic acid, and EFV was eluted with a mobile phase consisting of acetonitrile/0.1 % formic acid (65 % v/v) in a 5-mM ammonium acetate buffer containing 0.1 % acetic acid (35 % v/v). The eluates were detected by using a Sciex API 4000™ (AB Sciex, Framingham, MA, USA) equipped with a TurboIonSpray® ionisation source with multiple reaction monitoring (DTG positive ion mode m/z 420 > 277; internal standard m/z 428 > 277; EFV negative ion mode m/z 314 > 243; internal standard m/z 318 > 247). Data acquisition and processing were performed with Analyst 1.4.2 software (AB Sciex), and linear regression analysis calculations were performed using the Study Management System, SMS™ 2000 v.2.2 (GlaxoSmithKline, Research Triangle Park, NC, USA). The calibration range for DTG was 0.020 to 20 μg/mL and for EFV was 0.10 to 20 μg/mL. Quality control samples prepared separately at three concentrations were stored with study samples and analysed with each batch of samples against separately prepared calibration standards.
A non-compartmental PK analysis of the concentration-time data was performed with WinNonlin (version 5.2, Pharsight Corporation, Mountain View, CA, USA). Plasma PK parameters for both DTG and EFV were calculated using actual recorded times for each treatment. Parameters that were determined included AUC from time zero to the end of the dosage interval (AUC(0–τ)), maximum observed plasma concentration (C max), the time of maximum observed plasma concentration (T max) and plasma concentration at the end of the dosing interval (C τ).
A blood sample was taken from 9 of 12 subjects in the EFV study who gave consent for pharmacogenetic analysis, and genomic DNA was extracted. Twenty-three polymorphisms from five genes/gene regions previously implicated in EFV metabolism were genotyped (Table 1). Only polymorphisms possibly conferring reduced enzyme activity were investigated. Due to the small number of samples available, no statistical modelling was planned or performed. However, the probabilities for each possible experimental outcome, based on the distribution of polymorphism carrier status between cases and controls and an assumption of no genetic association, were calculated a priori.

[2] = EFV product label, cited from earlier work
[3] = set-up: method as in PMID 18769354; conditions: EVG 200 mg once daily with TPV/r 500/200 mg twice daily, healthy subjects; cited from earlier work
[4] = Plasma metabolic profile of DTG (pooled plasma); format: in vivo, human; conditions: pooled plasma, both treatment groups
Protocol: (§1) There was no washout between treatment periods. All doses were administered in the fasting state.
(§2) Urine samples were collected at intervals of 0 to 12 hours and 12 to 24 hours after each treatment period. Individual urine pools were produced for each subject in a given treatment group by combining proportional volumes (% of total volume) from the 0- to 12-hours and 12- to 24-hours collections. Individual pooled human plasma samples were prepared for each subject and treatment group.
Each pooled plasma sample was mixed with aqueous EDTA disodium salt solution (10 mg/mL) and subsequently extracted 3 times with methanol and acetonitrile. Pooled urine samples were lyophilised and the residue was reconstituted in water:methanol (90:10 v/v). Drug-related components in plasma extracts and urine samples were separated on a 100 × 4.6 mm 3.5-micron Symmetry C18 column (Waters Associates) at 40°C by a step-gradient elution method with a mobile phase composition of water:acetonitrile containing 0.1% ammonium acetate starting at 95:5 (v/v) and ending at 5:95 (v/v) over 50 minutes. The eluate was analysed by multistage mass spectrometry (MSn) using an LTQ Orbitrap™ Hybrid Mass Spectrometer with Xcalibur 2.07 software (Thermo Fisher Scientific, Bremen, Germany). […]

[5] = Urinary metabolic profile of DTG (pooled urine); format: in vivo, human; conditions: pooled urine 0-24 h, n=12, mean (standard deviation)
Protocol: as §1, §2
Each pooled plasma sample was mixed with aqueous EDTA disodium salt solution (10 mg/mL) and subsequently extracted 3 times with methanol and acetonitrile. Pooled urine samples were lyophilised and the residue was reconstituted in water:methanol (90:10 v/v). Drug-related components in plasma extracts and urine samples were separated on a 100 × 4.6 mm 3.5-micron Symmetry C18 column (Waters Associates) at 40°C by a step-gradient elution method with a mobile phase composition of water:acetonitrile containing 0.1% ammonium acetate starting at 95:5 (v/v) and ending at 5:95 (v/v) over 50 minutes. The eluate was analysed by multistage mass spectrometry (MSn) using an LTQ Orbitrap™ Hybrid Mass Spectrometer with Xcalibur 2.07 software (Thermo Fisher Scientific, Bremen, Germany). Data-dependent scanning using an accurate mass list, consisting of all previously characterised metabolites, was used in addition to analysis of pre-dose samples to aid in the distinction of drug-related material from endogenous components.

[6] = with TPV/r; cited from earlier work
[7] = in vivo; cited from earlier work
CYP3A4/5 = conditions: in vivo, cited from earlier work
[8] = Safety evaluations, interaction study with TPV/r; format: in vivo, human
Protocol: In both studies, safety evaluations [adverse event (AE) reporting, clinical chemistry laboratory tests, urinalysis, vital signs and electrocardiogram] were performed throughout the study. Given the known hepatotoxicity profile of TPV/r, more frequent monitoring of liver chemistries was performed in the TPV/r study, and conservative stopping criteria were employed such that any subject reaching a grade 2 increase in alanine aminotransferase (ALT) or aspartate aminotransferase (AST) was discontinued from the trial. Both trials were conducted as inpatient studies with subjects housed in the unit for the duration of the study. The studies were conducted in accordance with the principles of the Declaration of Helsinki. A written informed consent was obtained from all subjects, and both protocols were approved by the institutional review board of the study sites.

[9] = in vivo, EFV with DTG, CYP2B6*1/*1 or *1/*6 subjects n=6, geometric mean (CV%)
[10] = in vivo, EFV with DTG, CYP2B6*6/*6 subjects n=3, geometric mean (CV%)
[11] = in vivo, EFV with DTG, all subjects n=12, geometric mean (CV%)

## O=C1Nc2ccc(Cl)cc2[C@@](C#CC2CC2)(C(F)(F)F)O1 [EFV, efavirenz]
[1]; EFV with DTG, CYP2B6*1/*1 or *1/*6 subjects n=6, geometric mean (CV%)
  C τ: 1.45 (40) μg/mL
[1]; [9]
  AUC: 55700 ng·h/mL
  Cmax: 4520 ng/mL
  half-life: 15.6 h
[1]; [10]
  AUC: 174000 ng·h/mL
  Cmax: 9500 ng/mL
  concentration at 24 h: 5850 ng/mL
  half-life: 39.1 h
[1]; [11]
  AUC: 84200 ng·h/mL
  concentration at 24 h: 2410 ng/mL
  half-life: 22.2 h
[1]; in vivo, EFV 600 mg q24h with DTG 50 mg, all subjects n=12, geometric mean (CV%)
  Cmax: 6020 ng/mL
[1]; in vivo, EFV with DTG, CYP2B6*1/*1 or *1/*6 subjects n=6, median (range)
  Tmax: 2.5 h
[1]; in vivo, EFV with DTG, CYP2B6*6/*6 subjects n=3, median (range)
  Tmax: 2 h
[1]; in vivo, EFV with DTG, all subjects n=12, median (range)
  Tmax: 2.5 h
[1]; in vivo
  EFV exposures in CYP2B6*6 homozygous subjects relative to CYP2B6*1/*1 or *1/*6 carriers: two- to fourfold higher
[2]
  mean C max: 4070 ng/mL
[2]; read-out: mean C max
  Cmax: 12.9 µM

## COc1cc2c(cc1Cc1cccc(Cl)c1F)c(=O)c(C(=O)O)cn2[C@H](CO)C(C)C [EVG, Elvitegravir]
[3]
  changes in PK: No significant changes

## C[C@@H]1CCO[C@H]2Cn3cc(C(=O)NCc4ccc(F)cc4F)c(=O)c(O[C@@H]4O[C@H](C(=O)O)[C@@H](O)[C@H](O)[C@H]4O)c3C(=O)N12 [M2]
[4]
  amount in plasma relative to DTG (mean): < 2 % of DTG
[5]; DTG 50 mg + EFV q24h
  % DTG: 1,633 (607) %
  % Total drug-related response: 79.8 (9.3) %
[5]; DTG 50 mg q24h
  % DTG: 1,188 (275) %
  % Total drug-related response: 72.8 (10.9) %

## C[C@@H]1CCO[C@H]2Cn3cc(C(=O)NC(O)c4ccc(F)cc4F)c(=O)c(O)c3C(=O)N12 (stereo partly shown) [M3]
[5]; DTG 50 mg + EFV q24h
  % DTG: 38.8 (48.6) %
  % Total drug-related response: 1.9 (2.4) %
[5]; DTG 50 mg q24h
  % DTG: 51.9 (57.3) %
  % Total drug-related response: 2.9 (2.6) %

## Cc1nnc(C(=O)NC(C)(C)c2nc(C(=O)NCc3ccc(F)cc3)c(O)c(=O)n2C)o1 [RAL, raltegravir]
[6]
  decrease of AUC(0–12): 24%

## CC(C)CN(C[C@@H](O)[C@H](Cc1ccccc1)NC(=O)O[C@H]1CCOC1)S(=O)(=O)c1ccc(N)cc1 [amprenavir]
[7]
  decrease of Cmin: 56%

## CC(C)(C)NC(=O)[C@@H]1C[C@@H]2CCCC[C@@H]2CN1C[C@@H](O)[C@H](Cc1ccccc1)NC(=O)[C@H](CC(N)=O)NC(=O)c1ccc2ccccc2n1 [saquinavir]
[7]
  decrease of Cmin: 80%

## tipranavir/ritonavir [TPV/r]
CYP3A4/5; after a single dose
  effect on CYP3A4/5: moderately inhibits
CYP3A4/5; after repeated dosing
  effect on CYP3A4/5: induces
[8]; healthy subjects n=18
  subjects reporting nausea: 22%
  subjects reporting vomiting: 11%
[8]; n=18, began during TPV/r alone (period 2)
  subjects with grade 2 increases in AST: Three
[8]; n=18, began during TPV/r alone (period 2), considered related to TPV/r
  subjects with grade 2 increases in ALT leading to discontinuation: Four
